Where two headings read alike, the source gives them in different places.
Biological target: T1, FmlHLD (Escherichia coli, UniProt P77588)
T1 construct: 6xHis (C); made in house; host or cells: E. coli C600, periplasm, pTRC99a
Assay: biochemical
Format: binding, E. coli
Conditions: for inhibitory potency against FmlH, in words: ELISA-based competition assay; for PI100 (percent inhibition): galactoside at 100 μM
Method in brief: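 Sialidase-treated bovine submaxillary mucin (ds-BSM) coated wells, BSA-blocked, then biotinylated FmlH^LD (20 μg/mL) with or without compound for 1 h at room temperature. Bound lectin detected by streptavidin-HRP/TMB, A450.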

[1] = IC50 (μM), Table 6, sulfonamides 3078-3090
[2] = IC50 (μM), Table 5, Gal and GalNAc inhibition of FmlH
[3] = read-out: % Inhibition at [μM] [0.1], compound at 0.1 μM (100 nM), inhibition of FmlHLD binding to ds-BSM
[4] = read-out: % Inhibition at [μM] [1], compound at 1 μM, inhibition of FmlHLD binding to ds-BSM
[5] = read-out: PI (0.1) (average percent inhibition), compound at 100 nM, Table 4
[6] = read-out: PI(1) (average percent inhibition), compound at 1 μM, Table 4
[7] = IC50, inhibition of FmlHLD binding to ds-BSM
[8] = mean with standard error of the mean, 100 µM
[9] = read-out: PI1 (percent inhibition), galactoside at 1 μM, mean with standard error of the mean
[10] = read-out: PI10 (percent inhibition), galactoside at 10 μM, mean with standard error of the mean
[11] = read-out: PI100 (percent inhibition), galactoside at 100 μM, mean with standard error of the mean
[12] = read-out: % Inhibition at [μM] [100], compound at 100 μM, inhibition of FmlHLD binding to ds-BSM
[13] = read-out: % Inhibition at [μM] [10], compound at 10 μM, inhibition of FmlHLD binding to ds-BSM
[14] = mean with standard error of the mean

T1 sequence (P77588 25-182): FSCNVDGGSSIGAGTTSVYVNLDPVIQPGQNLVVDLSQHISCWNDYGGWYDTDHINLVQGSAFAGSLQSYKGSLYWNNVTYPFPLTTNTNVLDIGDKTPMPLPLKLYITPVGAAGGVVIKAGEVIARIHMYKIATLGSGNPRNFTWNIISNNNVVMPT

Cc1cccc(O[C@@H]2O[C@H](CO)[C@H](O)[C@H](O)[C@H]2NS(C)(=O)=O)c1-c1cccc(NS(C)(=O)=O)c1 [Compound 3089, N-((2S,3R,4R,5R,6R)-4,5-dihydroxy-6-(hydroxymethyl)-2-((6-methyl-3′-(methylsulfonamido)-[1,1′-biphenyl]-2-yl)oxy)tetrahydro-2H-pyran-3-yl)methanesulfonamide]
IC50 [1]: 3.5 µM

CC(=O)N[C@H]1[C@H](Oc2ccccc2-c2cccc(CO)c2)O[C@H](CO)[C@H](O)[C@@H]1O [AM2064, N-((2S,3R,4R,5R,6R)-4,5-dihydroxy-6-(hydroxymethyl)-2-((3′-(hydroxymethyl)-[1,1′-biphenyl]-2-yl)oxy)tetrahydro-2H-pyran-3-yl)acetamide]
inhibitory potency against FmlH, in words: equal or slightly reduced potency
IC50 [2]: 0.63 µM
inhibition at 0.1 µM [3]: 2%
inhibition at 1 µM [4]: 38.9%
inhibition at 0.1 µM [5]: 2%
inhibition at 1 µM [6]: 38.9%

CC(=O)N[C@H]1[C@H](Oc2ccccc2-c2cccc(NS(=O)(=O)C(F)(F)F)c2)O[C@H](CO)[C@H](O)[C@@H]1O [AM2112]
IC50 [7]: 2.43 µM

CC(=O)N[C@H]1[C@H](Oc2cccc([N+](=O)[O-])c2-c2cccc(NS(C)(=O)=O)c2)O[C@H](CO)[C@H](O)[C@@H]1O [Compound 3078, N-((2S,3R,4R,5R,6R)-4,5-dihydroxy-6-(hydroxymethyl)-2-((3′-(methylsulfonamido)-6-nitro-[1,1′-biphenyl]-2-yl)oxy)tetrahydro-2H-pyran-3-yl)acetamide]
IC50 [1]: 0.11 µM

Cc1ccccc1O[C@@H]1O[C@H](CO)[C@H](O)[C@H](O)[C@H]1O [Compound 2β, 2-Methylphenyl α/β-D-Galactopyranoside]
PI100 (percent inhibition) [8]: 87.3 ± 3.7%
inhibition at 1 µM [9]: 1.8 ± 5.7%
inhibition at 10 µM [10]: 28.2 ± 1.8%
inhibition at 100 µM [11]: 87%

COC(=O)c1cccc(-c2ccccc2O[C@H]2O[C@H](CO)[C@H](O)[C@H](O)[C@H]2O)c1 [Compound 116e]
inhibition at 100 µM [12]: 13.1%

COc1ccc(O)cc1-c1ccccc1O[C@@H]1O[C@H](CO)[C@H](O)[C@H](O)[C@H]1NC(C)=O [AM2073, N-((2S,3R,4R,5R,6R)-4,5-dihydroxy-2-((5′-hydroxy-2′-methoxy-[1,1′-biphenyl]-2-yl)oxy)-6-(hydroxymethyl)tetrahydro-2H-pyran-3-yl)acetamide]
inhibitory potency against FmlH, in words: equal or slightly reduced potency
IC50 [2]: 0.51 µM
inhibition at 0.1 µM [3]: 7.1%
inhibition at 1 µM [4]: 34.2%
inhibition at 0.1 µM [5]: 7.1%
inhibition at 1 µM [6]: 34.2%

O=[N+]([O-])c1ccc(S[C@@H]2O[C@H](CO)[C@H](O)[C@H](O)[C@H]2O)cc1 [PNPTG, reference compound]
inhibition at 10 µM [13]: 17%
inhibition at 100 µM [12]: 72.5%

OC[C@H]1O[C@@H](Oc2cccc3ccccc23)[C@H](O)[C@@H](O)[C@H]1O [Compound 18β, 1-naphthalenyl α/β-D-galactopyranoside]
PI100 (percent inhibition) [8]: 45.9 ± 3.7%
inhibition at 100 µM [11]: 46%

Cc1cc(=O)oc2cc(O[C@@H]3O[C@H](CO)[C@H](O)[C@H](O)[C@H]3O)ccc12 [Compound 12β]
PI100 (percent inhibition) [8]: 85.3 ± 0.7%
inhibition at 1 µM [9]: 8.7 ± 3.1%
inhibition at 10 µM [10]: 19.7 ± 4.2%
inhibition at 100 µM [11]: 85%

CCOC(=O)c1ccc(OC)c(-c2ccccc2O[C@@H]2O[C@H](CO)[C@H](O)[C@H](O)[C@H]2NC(C)=O)c1 [AM2053, ethyl 2′-(((2S,3R,4R,5R,6R)-3-acetamido-4,5-dihydroxy-6-(hydroxymethyl)tetrahydro-2H-pyran-2-yl)oxy)-6-methoxy-[1,1′-biphenyl]-3-carboxylate]
inhibition at 0.1 µM [3]: 0%
inhibition at 1 µM [4]: 13.7%
inhibition at 0.1 µM [5]: 0%
inhibition at 1 µM [6]: 13.7%

O=C(O)c1cccc(-c2ccccc2O[C@H]2O[C@H](CO)[C@H](O)[C@H](O)[C@H]2O)c1 [Compound 200a]
inhibition at 100 µM [12]: 26.2%

COc1cc(OC)cc(O[C@@H]2O[C@H](CO)[C@H](O)[C@H](O)[C@H]2O)c1 [Compound 151d]
inhibition at 10 µM [13]: 11.7%
inhibition at 100 µM [12]: 76.4%

CC(=O)N[C@H]1[C@H](Oc2cccc(C(=O)O)c2-c2cccc(NS(C)(=O)=O)c2)O[C@H](CO)[C@H](O)[C@@H]1O [AM2148]
IC50 [7]: 0.13 µM

CC(=O)N[C@@H]1[C@H](Oc2ccccc2-c2cc(C(=O)O)cc([N+](=O)[O-])c2)OC(CO)[C@H](O)[C@@H]1O (stereo partly drawn) [Compound 3029, 2′-(((2S,3S,4R,5R)-3-acetamido-4,5-dihydroxy-6-(hydroxymethyl)tetrahydro-2H-pyran-2-yl)oxy)-5-nitro-[1,1′-biphenyl]-3-carboxylic acid]
IC50 [2]: 2.2 µM

O=[N+]([O-])c1ccccc1O[C@@H]1O[C@H](COP(=O)(O)O)[C@H](O)[C@H](O)[C@H]1O [ONPG-6P, reference compound]
% Inhibition at [μM] [100] (compound at 100 μM, inhibition of FmlHLD binding to ds-BSM): 1.31%

O=C(O)c1cc(-c2ccccc2O[C@@H]2O[C@H](CO)[C@H](O)[C@H](O)[C@H]2O)cc([N+](=O)[O-])c1 [AM2050, 5-nitro-2′-(((2S,3R,4S,5R,6R)-3,4,5-trihydroxy-6-(hydroxymethyl)tetrahydro-2H-pyran-2-yl)oxy)-[1,1′-biphenyl]-3-car oxylic acid]
potency relative to matched pair Gal/GalNAc derivative (2038 vs 2043, 2050 vs 3029): 6 fold
IC50 [2]: 0.28 µM
IC50 [7]: 0.418 µM
inhibition at 0.1 µM [3]: 7.6%
inhibition at 1 µM [4]: 68%
inhibition at 0.1 µM [5]: 7.6%
inhibition at 1 µM [6]: 68%

OC[C@H]1O[C@@H](Oc2c[nH]c3cc(Cl)ccc23)[C@H](O)[C@@H](O)[C@H]1O [Compound 17β]
PI100 (percent inhibition) [8]: 41.2 ± 3.4%
inhibition at 100 µM [11]: 41%

CNC(=O)c1cccc(-c2ccccc2O[C@@H]2O[C@H](CO)[C@H](O)[C@H](O)[C@H]2O)c1 [AM2042, N-methyl-2′-(((2S,3R,4S,5R,6R)-3,4,5-trihydroxy-6-(hydroxymethyl)tetrahydro-2H-pyran-2-yl)oxy)-[1,1′-biphenyl]-3-carboxamide]
inhibition at 0.1 µM [3]: 0%
inhibition at 1 µM [4]: 16.6%
inhibition at 0.1 µM [5]: 0%
inhibition at 1 µM [6]: 16.6%

N#Cc1ccccc1O[C@@H]1O[C@H](CO)[C@H](O)[C@H](O)[C@H]1O [Compound 137b]
inhibition at 1 µM [4]: 12.1%
inhibition at 10 µM [13]: 30.4%
inhibition at 100 µM [12]: 94.5%

Cc1c(C)c2ccc(O[C@@H]3O[C@H](CO)[C@H](O)[C@H](O)[C@H]3O)cc2oc1=O [Compound D715-0293, reference compound]
inhibition at 1 µM [4]: 10.2%
inhibition at 10 µM [13]: 19.8%
inhibition at 100 µM [12]: 89.2%

Cc1ccc(O[C@@H]2O[C@H](CO)[C@H](O)[C@H](O)[C@H]2O)cc1 [Compound 8β, 4-methylphenyl β-D-galactopyranoside]
PI100 (percent inhibition) [8]: 85.8 ± 0.7%
inhibition at 1 µM [9]: 4.6 ± 7.9%
inhibition at 10 µM [10]: 16.5 ± 3.3%
inhibition at 100 µM [11]: 86%

CC(=O)N[C@H]1[C@@H](Oc2ccc([N+](=O)[O-])cc2)O[C@H](CO)[C@H](O)[C@@H]1O[C@@H]1O[C@H](CO)[C@H](O)[C@H](O)[C@H]1O [Compound 33, p-nitrophenyl Gal-β1-3-GalNAc, reference compound]
PI100 (percent inhibition) [14]: 15.3 ± 3.1%

O=[N+]([O-])c1ccc(O[C@@H]2O[C@H](CO[C@@H]3O[C@H](CO)[C@H](O)[C@H](O)[C@H]3O)[C@H](O)[C@H](O)[C@H]2O)cc1 [Compound 35, p-nitrophenyl Gal-β1-6-Gal, reference compound]
PI100 (percent inhibition) [14]: 19.4 ± 1.6%

OC[C@H]1O[C@@H](SCCc2ccccc2)[C@H](O)[C@@H](O)[C@H]1O [Compound 22β-thio]
inhibition at 10 µM [10]: 2.3 ± 2.5%
inhibition at 100 µM [11]: 49.8 ± 2.5%

O=[N+]([O-])c1cccc(-c2ccccc2O[C@@H]2O[C@H](CO)[C@H](O)[C@H](O)[C@H]2O)c1 [AM3049]
IC50 [7]: 15 µM

CC(=O)N[C@H]1[C@H](Oc2ccc3cnccc3c2)O[C@H](CO)[C@H](O)[C@@H]1O [AM2007, N-((2S,3R,4R,5R,6R)-4,5-dihydroxy-6-(hydroxymethyl)-2-(isoquinolin-6-yloxy)tetrahydro-2H-pyran-3-yl)acetamide]
inhibition at 1 µM [4]: 12.6%
inhibition at 1 µM [6]: 12.6%

CC(=O)N[C@H]1[C@H](Oc2ccccc2-c2cccc(OS(C)(=O)=O)c2)O[C@H](CO)[C@H](O)[C@@H]1O [AM2078, 2′-(((2S,3R,4R,5R,6R)-3-acetamido-4,5-dihydroxy-6-(hydroxymethyl)tetrahydro-2H-pyran-2-yl)oxy)-[1,1′-biphenyl]-3-yl methanesulfonate]
inhibitory potency against FmlH, in words: equal or slightly reduced potency
IC50 [2]: 0.89 µM
inhibition at 0.1 µM [3]: 2%
inhibition at 1 µM [4]: 32.5%
inhibition at 0.1 µM [5]: 2%
inhibition at 1 µM [6]: 32.5%

CC(=O)N[C@H]1[C@H](Oc2ccccc2-c2cccc(C(=O)N(C)C)c2)O[C@H](CO)[C@H](O)[C@@H]1O [AM2032, 2′-(((2S,3R,4R,5R,6R)-3-acetamido-4,5-dihydroxy-6-(hydroxymethyl)tetrahydro-2H-pyran-2-yl)oxy)-N,N-dimethyl-[1,1′-biphenyl]-3-carboxamide]
inhibitory potency against FmlH, in words: equal or slightly reduced potency
IC50 [2]: 3.13 µM
inhibition at 1 µM [4]: -3.61%
inhibition at 1 µM [6]: -3.61%

Reference: patent US11773127B2, “Compounds and methods for treating bacterial infections” (Washington University, priority 2017, dated 2023)
